Data set [1] relates to FIG-ROS and ROS-1 effector pathway phosphorylation. As to the kind of experiment: Immunoblot of FIG-ROS tumor lysates after oral gavage. It is filed as in vivo, mice. The following applies: 25 mg/kg oral gavage. As to the method:
FIG. 3D is an image of an immunoblot of tumor lysates probed for phosphorylated and total ROS1, phosphorylated and total Shpt, phosphorylated and total Stat3, phosphorylated and total Src as well as tubulin as a loading control.
(§1) Ba/F3 FIG-ROS, Ba/F3 SLC-ROS, HCC78 and mCC cell lines were treated with the indicated concentration of inhibitors for 1-2 hours. […] The protein content of the cell lysates was determined and lysates were either used for immunoprecipitation where indicated or extracted with SDS Sample buffer for 15 minutes at 80° C. Proteins were transferred to Immobilon-FL membranes and immunoblotted with antibodies specific for phospho-ROS1 (Cell Signaling Technology (CST) #3078), total ROS1 (CST #3266), phopsho-Shp2 (CST #3751), total Shpt (CST #3752), phospho-Stat3 (CST #9145), total Stat3 (CST #4904), phospho-Erk1/2 (CST #9101), total Erk2 (Santa Cruz #SC-1647), phospho-S6 (CST #4858), total S6 (CST #2216), phospho-Src (CST #2105), total Src (CST #2110), α-tubulin (Sigma T6199), or β-actin (Sigma A1978) as indicated. Images of the blots were generated by the LI-COR Odyssey® imaging system, following the manufacturer's protocol for immunoblot detection with use of IR-dye conjugated secondary antibodies.
Concomitant with diminished FIG-ROS activation, phosphorylation of Shpt and Stat3, but not Src is inhibited in the treated tumors.

For data set [2], the system named is FIG-ROS tumors. As to the kind of experiment: In vivo treatment of mice bearing subcutaneous FIG-ROS cholangiocarcinoma tumors. The following applies: 25 mg/kg oral gavage once daily, 9 days, immunodeficient mice; foretinib p<0.0001 for Lines 4 and 6.
Procedure: Mouse chorangiocarcinoma cell lines expressing either FIG-ROS or shPten were subcutaneously injected into 11 week old female immune-deficient mice. […] Caliper measurements were taken at the time of treatment initiation and 24 hrs after administration of the last dose. Data in waterfall plots is calculated as follows: ((tumor volume Tend/tumor volume T0)−1). Caliper measurements of tumors were taken at T0 and Tend. Tumor volume is calculated as: 0.5*L*Ŵ2(L>W).
Tumors were formed by subcutaneous injection of the murine cholangiocarcinoma cell lines described above in the flanks of immunodeficient mice. […] Caliper measurements were taken at the time of treatment initiation (Ti) and 24 h after administration of the last dose (Tend).
For data set [3], the system named is HCC78 cells. As to the kind of experiment: HCC78 colony formation. Format: cell-based, human. The following applies: 10 days, FIG. 1F. The source says:
FIG. 1F bottom panel is a bar graph depicting the number of colonies observed on the plates from FIG. 1F top panel. Where indicated, **=p<0.01 and ***=p<0.001 by Student's t-test.

The target in data set [4] is Ba/F3 FIG-ROS E1935G cells (Homo sapiens, UniProt P08922, E1935G, cells depend on it). As to the kind of experiment: Cell viability assay, Ba/F3 FIG-ROS E1935G. Format: cell-based. The following applies: Table 3, Ba/F3 FIG-ROS E1935G; nM; read-out: IC50 (the source's name). The method, then: (§2) Cell lines were distributed in 96-well plates and incubated with the indicated concentrations of inhibitor for 72 hours. […] Ba/F3 cell lines were plated at 4×10^3 cells/well. HCC78 and mCC cell lines were plated at 1.5×10^3 cells/well. All cell types were seeded in a final volume of 80 microliters. A 20 microliter volume of five-fold concentrated inhibitor media was added. Cell proliferation was measured using a […] viability assay (CellTiter96 Aqueous One® Solution; Promega). A BioTek Synergy 2® plate reader was used to read the absorbance at 490 nm at 30 minutes and 1 hour after addition of MTS. To facilitate comparison between experiments, the raw MTS absorbance of vehicle (0.1% DMSO) treated cells was set to 1 and absorbance from inhibitor treated wells was normalized to the vehicle treated value. […] Data were normalized using Microsoft Excel® and further non-linear regression curve fit analysis of the normalized data for determination of IC50 was performed using Graphpad Prism® software.
The FIG-ROS-S fusion gene was synthesized using the GeneArt® service. FIG-ROS-S is denoted as FIG-ROS herein.

In data set [5] the target is FIG-ROS (Homo sapiens, UniProt P08922). The data set is described as follows: Immunoblot of FIG-ROS murine cholangiocarcinoma cell lysates. Format: cell-based. More on the design: expressed in transfected cells; host or cells: murine cholangiocarcinoma tumour cell lines (lines 3 and 4) derived from transduced mouse hepatoblasts; the other entry of the earlier key: GOPC (Q9HD26, Golgi-associated PDZ and coiled-coil motif-containing protein). To be noted: 100 nM, FIG-ROS murine cholangiocarcinoma cells. As to the method:
[…]. Images shown are representative of three independent experiments.
as §1
. The inhibition was dose dependent (FIG. 2B). […].
In general terms: Immunoblotting shows a protein as a band on a membrane.

For data set [6] the following is noted: established, reported in the literature; read-out: steady state maximum plasma concentration Cmax; cited from earlier work.
Data set [7] concerns HCC78 cells. The data set is described as follows: HCC78 cell migration (scratch gap closure). Format: cell-based, human. The following applies: 50 nM, 18 hours, FIG. 6A. The method, then:
FIG. 6A is a set of six images on the left and a bar graph on the right. The images at left are of a gap at 10 minutes and at 18 hours after ‘scratch’ of cells on a surface. […] The right panel is a bar graph depicting the percent of gap closure determined by measuring the length of a straight line drawn across the gap from imaging the same field of view at initiation of treatment and at 18 hours. Scale bar=200 μm

In data set [8] the test system is FIG-ROS murine cholangiocarcinoma tumor cells. The data set is described as follows: cells. The following applies: Mus musculus, read-out: IC50 cell growth. The method, then: (§3) Hepatoblasts of the genotype AlbCre^+/−; Isl Kras^G12D+/−; p53^R172H/loxp were isolated from ED14.5 mouse embryos and retrovirally transduced with either the FIG-ROS fusion, turbo RFP or a short hairpin RNA against Pten (shPten.1522). At 48 hours following transduction, 1×10^6 cells were resuspended in 25 μl Matrigel and injected sub-capsular into the livers of immune-deficient mice. Upon tumor formation, tumors were explanted and subjected to collagenase digestion. Digests were plated onto gelatin-coated plates. Tumor cells were enriched by either differential trypsinization or cell sorting. […] These four cell lines were further cultured and maintained in DMEM-High glucose medium supplemented with 10% FCS, L-glutamine and penicillin/streptomycin.
as §2
(§4) To directly assess inhibition of FIG-ROS phosphorylation, immunoblot analyses of lysates from vehicle or inhibitor-treated cells were performed.

Data set [9] concerns shPten murine cholangiocarcinoma tumor cells. As to the kind of experiment: cells. To be noted: Mus musculus, read-out: IC50 cell growth. As to the method: as §3, §2, §4

Molecules are shown by their SMILES.

`COc1cc2c(Oc3ccc(NC(=O)C4(C(=O)Nc5ccc(F)cc5)CC4)cc3F)ccnc2cc1OCCCN1CCOCC1` [foretinib, N1′-[3-fluoro-4-[[6-methoxy-7-(3-morpholinopropoxy)-4-quinolyl]oxy]phenyl]-N1-(4-fluorophenyl)cyclopropane-1,1-dicarboxamide]: the “intra-tumoral phosphorylation of Shpt and Stat3” value in data set [1] (FIG-ROS tumors) is given as “is inhibited”. In data set [1] (FIG-ROS tumors), the “intra-tumoral phosphorylation of Src” value is “but not Src”. Also, in data set [1] (tumors harvested at 1, 2, 4 and 8 hours), the “intra-tumoral FIG-ROS phosphorylation” value is “Rapid and robust inhibition”. Also, the FIG-ROS tumor volume result in data set [2] is “dramatically and significantly reduced”. Further, in [3], the HCC78 colony formation result is given as “more potently inhibited by foretinib than crizotinib”. In addition, in data set [4], the GI50 turned out to be 6.6 nM. In addition, the “auto-phosphorylation of FIG-ROS and phosphorylation of Shpt and ERK1/2” value in data set [5] is reported as “almost completely inhibited”. Further, in data set [6], the Cmax is 340 nM. The HCC78 cell migration entry in [7] is reported as “more potently inhibited by foretinib than crizotinib”. For the same molecule, the IC50 – broadly, the point on the concentration scale where inhibition reaches its midpoint – in data set [8] was 0.3 µM; in data set [9] it was more than 2 µM.

(Values after patent US20140243332A1, “METHODS OF TREATING CANCERS CHARACTERIZED BY ABERRENT ROS1 ACTIVITY” (Oregon Health & Science University, priority 2013, published 2014).)
